Experimental data taken from patent US6365609B1, “Substituted 3,3-diamino-2-propenenitriles, their preparation and use” (Novo Nordisk A/S, priority 1998, dated 2002).

System: not given
Details: not given

**Q.** For `C[C@@H](NC(Nc1cc(C(F)(F)F)cc(C(F)(F)F)c1)=C(C#N)S(C)(=O)=O)C(C)(C)C` [Example 21, (R)-3-[3,5-bis(trifluoromethyl)phenylamino]-2-methanesulfonyl-3-(1,2,2-trimethylpropylamino)-2-propenenitrile], which melting point is on record?
**A.** 181 to 181.5 °C

**Q.** For `C[C@@H](NC(Nc1cc(C(F)(F)F)cc(C(F)(F)F)c1)=C(C#N)S(=O)(=O)c1ccc(Cl)cc1)C(C)(C)C` [Example 19, (R)-3-[3,5-bis(trifluoromethyl)phenylamino]-2-(4-chlorophenylsulfonyl)-3-(1,2,2-trimethylpropylamino)-2-propenenitrile], which melting point is on record?
**A.** 164 to 165 °C

**Q.** With `CC(NC(Nc1cc(C(F)(F)F)cc(C(F)(F)F)c1)=C(C#N)S(=O)(=O)c1ccc(Cl)cc1)C(C)(C)C` (centres unmarked) [Example 1, 3-[3,5-bis(trifluoromethyl)phenylamino]-2-(4-chlorophenylsulfonyl)-3-(1,2,2-trimethylpropylamino)-2-propenenitrile] as the compound, how does the melting point read?
**A.** 155.5 to 158.5 °C

**Q.** For `CC(NC(Nc1cc(C(F)(F)F)cc(C(F)(F)F)c1)=C(C#N)S(C)(=O)=O)C(C)(C)C` (centres unmarked) [Example 9, 3-(3,5-Bis(trifluoromethyl)phenylamino)-2-methylsulfonyl-3-(1,2,2-trimethylpropylamino)-propenenitrile], which melting point is on record?
**A.** 184.5 to 188.5 °C

**Q.** With `CCC(C)(C)NC(Nc1ccc2ncsc2c1)=C(C#N)S(C)(=O)=O` [Example 35, 3-(Benzothiazol-6-ylamino)-3-(1,1-dimethyl-propylamino)-2-methylsulfonyl-propenenitrile] as the compound, how does the melting point read?
**A.** 112 to 114 °C

**Q.** For `CC(NC(Nc1cc(Cl)cc(Cl)c1)=C(C#N)S(=O)(=O)c1ccc(Cl)cc1)C(C)(C)C` (centres unmarked) [Example 7, 2-(4-Chlorophenylsulfonyl)-3-(3,5-dichlorophenylamino)-3-(1,2,2-trimethylpropylamino)-2-propenenitrile], which melting point is on record?
**A.** 163 to 169 °C

**Q.** For `CC(NC(=C(C#N)S(=O)(=O)c1ccc(Cl)cc1)N(C)c1cc(C(F)(F)F)cc(C(F)(F)F)c1)C(C)(C)C` (centres unmarked) [Example 11, 3-[N-(3,5-bis(trifluoromethyl)phenyl)-N-methylamino]-2-(4-chlorophenylsulfonyl)-3-(1,2,2-trimethylpropylamino)-2-propenenitrile], which melting point is on record?
**A.** 151.5 to 154 °C

**Q.** For `CCC(C)(C)NC(Nc1cc(C(F)(F)F)cc(C(F)(F)F)c1)=C(C#N)S(=O)(=O)c1ccc(Cl)cc1` [Example 17, 3-[3,5-Bis(trifluoromethyl)phenylamino]-2-(4-chlorophenylsulfonyl)-3-(1,1-dimethylpropylamino)-2-propenenitrile], which melting point is on record?
**A.** 205 to 207 °C

**Q.** With `CC(C)NC(Nc1cc(C(F)(F)F)cc(C(F)(F)F)c1)=C(C#N)S(=O)(=O)c1ccc(Cl)cc1` [Example 3, 3-[3,5-Bis(trifluoromethyl)phenylamino]-2-(4-chlorophenylsulfonyl)-3-isopropylamino-2-propenenitrile] as the compound, how does the melting point read?
**A.** 197 to 198.5 °C

**Q.** Which melting point does the source give for `N#CC(=C(Nc1ccc2c(c1)OCO2)NC1CCC1)S(=O)(=O)c1ccc(Cl)cc1` [Example 28, 3-(Benzo[1,3]dioxol-5-ylamino)-3-cyclobutylamino-2-(4-chloro-phenylsulfonyl)-propenenitrile] here?
**A.** 189.5 °C

**Q.** With `CC(C)NC(Nc1cc(C(F)(F)F)cc(C(F)(F)F)c1)=C(C#N)S(C)(=O)=O` [Example 20, 3-(3,5-Bis(trifluoromethyl)phenylamino)-3-isopropylamino-2-methylsulfonyl-propenenitrile] as the compound, how does the melting point read?
**A.** 188.5 to 191 °C

**Q.** For `COc1cc(NC(NC(C)C(C)(C)C)=C(C#N)S(=O)(=O)c2ccc(Cl)cc2)cc(OC)c1` (centres unmarked) [Example 10, 2-(4-Chlorophenylsulfonyl)-3-(3,5-dimethoxyphenylamino)-3-(1,2,2-trimethylpropylamino)-2-propenenitrile], which melting point is on record?
**A.** 177.5 to 179 °C

**Q.** For `C[C@H](NC(Nc1cc(C(F)(F)F)cc(C(F)(F)F)c1)=C(C#N)S(C)(=O)=O)C(C)(C)C` [Example 22, (S)-3-[3,5-bis(trifluoromethyl)phenylamino]-2-methanesulfonyl-3-(1,2,2-trimethylpropylamino)-2-propenenitrile], which melting point is on record?
**A.** 180.5 to 181.5 °C

**Q.** With `CCC(C)(C)NC(Nc1ccc2c(c1)OCO2)=C(C#N)S(=O)(=O)c1ccc(Cl)cc1` [Example 27, 3-(Benzo[1,3]dioxol-5-ylamino)-3-(1,1-dimethyl-propylamino)-2-(4-chloro-phenylsulfonyl)-propenenitrile] as the compound, how does the melting point read?
**A.** 169 to 170 °C

**Q.** Which melting point does the source give for `CCC(C)(C)NC(Nc1cc(OC)cc(OC)c1)=C(C#N)S(=O)(=O)c1ccc(Cl)cc1` [Example 23, 2-(4-Chlorophenylsulfonyl)-3-(3,5-dimethoxyphenylamino)-3-(1,1-dimethylpropylamino)-2-propenenitrile] here?
**A.** 189 to 190 °C

**Q.** Which melting point does the source give for `CC(NC(Nc1ccc(Cl)cc1)=C(C#N)S(C)(=O)=O)C(C)(C)C` (centres unmarked) [Example 34, 3-(4-Chlorophenylamino)-2-methylsulfonyl-3-(1,2,2-trimethylpropylamino)-acrylonitrile] here?
**A.** 160.5 to 161.5 °C

**Q.** For `CCC(C)(C)NC(Nc1ccc2c(c1)OCO2)=C(C#N)C(=O)C(C)(C)C` [Example 36, 3-(Benzo[1,3]dioxol-5-ylamino)-2-(2,2-dimethyl-propionyl)-3-(1,1-dimethyl-propylamino)-propenenitrile], which melting point is on record?
**A.** 161 to 165 °C

**Q.** With `CCCNC(Nc1cc(C(F)(F)F)cc(C(F)(F)F)c1)=C(C#N)S(=O)(=O)c1ccc(Cl)cc1` [Example 5, 3-[3,5-Bis(trifluoromethyl)phenylamino]-2-(4-chlorophenylsulfonyl)-3-propylamino2-propenenitrile] as the compound, how does the melting point read?
**A.** 196.5 to 198.5 °C

**Q.** For `CC(NC(Nc1cc(F)cc(C(F)(F)F)c1)=C(C#N)S(C)(=O)=O)C(C)(C)C` (centres unmarked) [Example 33, 3-(3-Fluoro-5trifluoromethyl-phenylamino)-2-methylsulfonyl-3-(1,2,2-trimethylpropylamino)-propenenitrile], which melting point is on record?
**A.** 183 to 185 °C

**Q.** Which melting point does the source give for `CCC(C)NC(Nc1cc(Cl)cc(Cl)c1)=C(C#N)S(=O)(=O)c1ccc(Cl)cc1` (centres unmarked) [Example 31, 3-sec-Butylamino-2-(4-chlorophenylsulfonyl)-3-(3,5-dichlorophenylamino)-2-propenenitrile] here?
**A.** 150 to 152 °C

**Q.** With `N#CC(=C(Nc1cc(C(F)(F)F)cc(C(F)(F)F)c1)NC1CCCC1)S(=O)(=O)c1ccc(Cl)cc1` [Example 2, 3-[3,5-Bis(trifluoromethyl)phenylamino]-2-(4-chlorophenylsulfonyl)-3-cyclopentylamino2-propenenitrile] as the compound, how does the melting point read?
**A.** 199 to 200 °C

**Q.** For `N#CC(=C(Nc1cc(C(F)(F)F)cc(C(F)(F)F)c1)NC1CCC1)S(=O)(=O)c1ccc(Cl)cc1` [Example 4, 3-[3,5-Bis(trifluoromethyl)phenylamino]-2-(4-chlorophenylsulfonyl)-3-cyclobutylamino-2-propenenitrile], which melting point is on record?
**A.** 190.5 to 193 °C

**Q.** Which melting point does the source give for `COc1cc(NC(NC2CCC2)=C(C#N)S(=O)(=O)c2ccc(Cl)cc2)cc(OC)c1` [Example 24, 2-(4-Chlorophenylsulfonyl)-3-(3,5-dimethoxyphenylamino)3cyclobutylamino-2-propenenitrile] here?
**A.** 163.5 to 164.5 °C

Biological target: KATP-channels on pancreatic beta-cells (Homo sapiens, UniProt Q09428)
Sequence (Q09428 whole entry): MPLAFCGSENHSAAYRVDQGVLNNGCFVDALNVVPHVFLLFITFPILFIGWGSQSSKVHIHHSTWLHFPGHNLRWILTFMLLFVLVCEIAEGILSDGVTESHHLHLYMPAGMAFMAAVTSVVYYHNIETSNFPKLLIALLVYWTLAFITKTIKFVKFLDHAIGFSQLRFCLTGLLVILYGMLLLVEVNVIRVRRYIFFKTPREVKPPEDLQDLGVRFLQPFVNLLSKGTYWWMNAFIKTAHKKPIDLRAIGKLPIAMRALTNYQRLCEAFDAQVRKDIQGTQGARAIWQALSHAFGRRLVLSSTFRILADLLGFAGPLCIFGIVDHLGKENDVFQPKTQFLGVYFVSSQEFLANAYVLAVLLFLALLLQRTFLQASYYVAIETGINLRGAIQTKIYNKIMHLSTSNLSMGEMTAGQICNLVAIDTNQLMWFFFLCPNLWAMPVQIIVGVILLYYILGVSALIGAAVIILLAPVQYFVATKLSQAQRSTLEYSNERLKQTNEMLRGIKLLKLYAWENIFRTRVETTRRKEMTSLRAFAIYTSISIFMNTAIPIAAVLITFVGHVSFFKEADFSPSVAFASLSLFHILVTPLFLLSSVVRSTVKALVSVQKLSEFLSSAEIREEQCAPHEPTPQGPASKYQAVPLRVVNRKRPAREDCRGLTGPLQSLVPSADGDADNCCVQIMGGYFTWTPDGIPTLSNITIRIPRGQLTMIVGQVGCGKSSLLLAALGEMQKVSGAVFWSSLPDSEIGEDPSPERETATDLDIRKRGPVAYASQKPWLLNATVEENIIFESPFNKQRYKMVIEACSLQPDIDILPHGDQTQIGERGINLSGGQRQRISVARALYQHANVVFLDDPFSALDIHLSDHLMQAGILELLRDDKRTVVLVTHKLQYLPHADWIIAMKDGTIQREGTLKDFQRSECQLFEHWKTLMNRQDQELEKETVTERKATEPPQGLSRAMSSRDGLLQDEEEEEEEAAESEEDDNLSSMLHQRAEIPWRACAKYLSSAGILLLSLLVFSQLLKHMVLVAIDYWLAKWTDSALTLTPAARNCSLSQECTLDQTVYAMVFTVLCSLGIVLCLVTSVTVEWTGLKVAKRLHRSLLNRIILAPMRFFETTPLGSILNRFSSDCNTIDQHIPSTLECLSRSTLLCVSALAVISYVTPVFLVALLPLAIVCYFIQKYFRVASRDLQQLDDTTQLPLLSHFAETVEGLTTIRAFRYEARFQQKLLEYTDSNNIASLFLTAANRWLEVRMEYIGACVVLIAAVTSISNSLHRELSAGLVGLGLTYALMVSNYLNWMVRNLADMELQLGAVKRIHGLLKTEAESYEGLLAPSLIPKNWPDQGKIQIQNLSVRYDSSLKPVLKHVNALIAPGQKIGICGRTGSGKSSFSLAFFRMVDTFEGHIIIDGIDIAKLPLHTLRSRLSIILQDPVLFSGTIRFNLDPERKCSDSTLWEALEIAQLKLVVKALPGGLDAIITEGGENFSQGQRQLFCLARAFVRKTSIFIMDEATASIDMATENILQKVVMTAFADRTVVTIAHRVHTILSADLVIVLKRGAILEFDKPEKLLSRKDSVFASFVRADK
Sequence (Q14654 whole entry partner): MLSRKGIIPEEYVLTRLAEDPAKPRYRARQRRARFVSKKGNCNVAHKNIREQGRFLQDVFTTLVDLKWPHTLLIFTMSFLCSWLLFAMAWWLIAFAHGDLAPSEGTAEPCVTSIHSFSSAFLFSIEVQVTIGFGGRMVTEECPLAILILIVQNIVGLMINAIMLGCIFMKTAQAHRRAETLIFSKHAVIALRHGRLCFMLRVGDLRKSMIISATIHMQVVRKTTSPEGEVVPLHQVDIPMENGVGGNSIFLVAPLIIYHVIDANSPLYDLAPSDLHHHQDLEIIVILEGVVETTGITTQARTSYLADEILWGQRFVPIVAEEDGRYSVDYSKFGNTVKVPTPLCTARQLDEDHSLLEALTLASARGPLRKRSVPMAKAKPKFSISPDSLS
Details: by activation of KATP-channels; cited from earlier work

**Q.** With `CC1=Nc2ccc(Cl)cc2S(=O)(=O)N1` [diazoxide, 7-chloro-3-methyl-2H-1,2,4-benzothiadiazine 1,1-dioxide] as the compound, how does the insulin release read?
**A.** inhibit insulin release

System: BB-rats
Details: cited from earlier work

**Q.** For `CC1=Nc2ccc(Cl)cc2S(=O)(=O)N1` [diazoxide, 7-chloro-3-methyl-2H-1,2,4-benzothiadiazine 1,1-dioxide], which onset of diabetes is on record?
**A.** delay the onset of diabetes

System: obese zucker rats
Details: cited from earlier work

**Q.** For `CC1=Nc2ccc(Cl)cc2S(=O)(=O)N1` [diazoxide, 7-chloro-3-methyl-2H-1,2,4-benzothiadiazine 1,1-dioxide], which glucose tolerance is on record?
**A.** improve glucose tolerance

**Q.** And the insulin receptor binding?
**A.** increase insulin receptor binding

**Q.** What about the insulin secretion of the same compound?
**A.** decrease insulin secretion

**Q.** What about the weight gain of the same compound?
**A.** decrease weight gain
